Results published in ChEMBL document CHEMBL3751773, “A minimally cytotoxic CD4 mimic as an HIV entry inhibitor” (Bioorg Med Chem Lett, 2016).

Experiments:
[1] = Initial concentration in rhesus macaque blood at 75 mg, iv after 0 to 24 hrs by HPLC analysis; format: ADME, organism-based, Macaca mulatta; conditions: rhesus monkey
[2] = Volume of distribution in rhesus macaque plasma at 75 mg, iv after 0 to 24 hrs by HPLC analysis; format: ADME, organism-based, Macaca mulatta; conditions: rhesus monkey
[3] = tested on: Human immunodeficiency virus 1; assay: Antiviral activity against R5-tropic HIV1 cYTA48P infected in TZM-bl cells by single round assay; format: functional, organism-based; conditions: Human immunodeficiency virus 1, cYTA48P
[4] = Cytotoxicity against mock-infected human PM1 cells expressing CCR5 by WST method; format: cell-based
[5] = Half life in rhesus macaque plasma at 75 mg, iv after 0 to 24 hrs by HPLC analysis; format: ADME, organism-based, Macaca mulatta; conditions: rhesus monkey
Rhesus monkey [6] = assay: Toxicity in rhesus macaque assessed as survival at 77.8 mg, iv measured after 6 months; format: organism-based, Macaca mulatta; conditions: in vivo, 4383 h
[7] = Toxicity in iv dosed rhesus macaque; format: organism-based, Macaca mulatta; conditions: rhesus monkey, in vivo
Rhesus monkey [8] = assay: Toxicity in rhesus macaque assessed as decrease in body temperature at 77.8 mg, iv after 24 hrs; format: organism-based, Macaca mulatta; conditions: in vivo
Rhesus monkey [9] = assay: Toxicity in rhesus macaque assessed as mydriasis at 77.8 mg, iv measured within 2 hrs; format: organism-based, Macaca mulatta; conditions: in vivo
Rhesus monkey [10] = assay: Toxicity in rhesus macaque assessed as decrease in body temperature at 77.8 mg, iv measured within 2 hrs; format: organism-based, Macaca mulatta; conditions: in vivo
PM1 = assay: Induction of conformational change in R5-tropic HIV1 cYTA48P gp120 infected in human PM1 cells assessed as increase in binding affinity to monoclonal antibody 4C11 at 100 uM after 15 mins by FACS analysis; format: cell-based; conditions: Human immunodeficiency virus 1

SMILES	IC50 [3]	CC50 [4]	Flu intensity (PM1)	also measured
CC1(C)CC(NC(=O)C(=O)Nc2ccc3c(c2)OCO3)CC(C)(C)N1 [listing 1 of 2 here]	6.2 µM	> 300 µM	–	C0 [1]: 2090 ng/mL; Vd [2]: 37.2 L; half-life [5]: 1.75 h
CC1(C)CC(NC(=O)C(=O)Nc2ccc3c(c2)OCO3)CC(C)(C)N1.Cl	–	–	–	Activity (Rhesus monkey [6]): Non-toxic; MTD [7]: 12.5 mg/kg; Activity (Rhesus monkey [8]): Non-toxic; Activity (Rhesus monkey [9]): Toxic; Activity (Rhesus monkey [10]): Toxic
O=C(Nc1ccc2c(c1)OCO2)C(=O)NC1CC2(CCCCC2)NC2(CCCCC2)C1 (stereo not given)	1.13 µM	> 200 µM	6.93	–
CCOC(=O)C1CCN(NC(=O)C(=O)Nc2ccc3c(c2)OCO3)CC1	> 100 µM	> 200 µM	7.83	–
CC1(C)CC(NC(=O)C(=O)Nc2ccc3c(c2)OCO3)CC(C)(C)N1 [listing 2 of 2 here]	–	–	12.3	–
CC1(C)CC(NC(=O)C(=O)Nc2ccc(Cl)cc2)CC(C)(C)N1	0.63 µM	70.4 µM	8.91	–
